Each structure is given as a SMILES string.

Experimental findings from the supplement of paper PMC11451515 are described below.

Assay in all cases: AUC of viability dose-response curve (% viability x log10 dose units); higher = less sensitive
Conditions in all cases: 48 h

The test system of experiment [1] is NOMO1. The method in brief: (§1)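 Viability of medium-adapted leukemia cells was measured by CellTiter-Glo One luminescence after 48 h at 37°C with library compounds in DMSO. Doses were 11 threefold steps from 47 μM to 0.79 nM, in 1536-well plates at 500 or 1000 cells/well. Signals were normalised per plate to DMSO and cell-free wells and fitted with a four-parameter log-logistic model on log10 dose. Area under the curve was integrated by trapezoidal rule, with curves exceeding full viability scaled and failed quality-control curves removed.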

Experiment [2] concerns SEM cells. Summed up: as §1
Experiment [3] deals with P12-Ichikawa. The method in brief:
as §1

The mark [4] stands for this setting: RPMI 5 mM glucose + 10% dialyzed FBS.

With `NCC(=O)Nc1ccc(-n2nc(C(F)(F)F)cc2-c2ccc3c(ccc4ccccc43)c2)cc1`, the “AUC of viability dose-response curve” value in experiment [1] (HPLM + 10% dialyzed FBS) was 458; in experiment [1] (RPMI 5 mM glucose + 10% FBS), 462; in experiment [1] (setting [4]), 447; in experiment [2] (HPLM + 10% dialyzed FBS), 460; in experiment [2] (RPMI 5 mM glucose + 10% FBS), 457; in experiment [2] (setting [4]), 424.

As to `CN1C(=O)/C=C(/NCCN(CCO)CCCC2=CC=C(C=C2)[N+]([O-])=O)N(C)C1=O`, the “AUC of viability dose-response curve” value in experiment [1] (HPLM + 10% dialyzed FBS) came to 463; in experiment [1] (RPMI 5 mM glucose + 10% FBS), 473; in experiment [1] (setting [4]), 443; in experiment [3] (HPLM + 10% dialyzed FBS) it was 447; in experiment [3] (RPMI 5 mM glucose + 10% FBS), 443; in experiment [3] (setting [4]) it was 441. The “AUC of viability dose-response curve” value in experiment [2] (HPLM + 10% dialyzed FBS) is 463; in experiment [2] (RPMI 5 mM glucose + 10% FBS), 450; in experiment [2] (setting [4]), 454.

As for `O=[N+]([O-])c1cnc(Sc2nnc(O)n2-c2ccc3c(c2)OCCO3)s1`, the “AUC of viability dose-response curve” value was 376 in experiment [1] (HPLM + 10% dialyzed FBS); 353 in experiment [1] (RPMI 5 mM glucose + 10% FBS); 375 in experiment [1] (setting [4]); 390 in experiment [3] (HPLM + 10% dialyzed FBS); 356 in experiment [3] (RPMI 5 mM glucose + 10% FBS); 337 in experiment [3] (setting [4]). Moreover, the “AUC of viability dose-response curve” value was 341 in experiment [2] (HPLM + 10% dialyzed FBS), 342 in experiment [2] (RPMI 5 mM glucose + 10% FBS) and 331 in experiment [2] (setting [4]).

On to `COc1cc(OC)c(NC(=O)Nc2cc(C)on2)cc1Cl`, for which the “AUC of viability dose-response curve” value came out at 464 in experiment [1] (HPLM + 10% dialyzed FBS); 442 in experiment [1] (RPMI 5 mM glucose + 10% FBS); 417 in experiment [1] (setting [4]); 463 in experiment [3] (HPLM + 10% dialyzed FBS); 465 in experiment [3] (RPMI 5 mM glucose + 10% FBS); 463 in experiment [3] (setting [4]). The “AUC of viability dose-response curve” value in experiment [2] (HPLM + 10% dialyzed FBS) was found to be 467; in experiment [2] (RPMI 5 mM glucose + 10% FBS) it was 397; in experiment [2] (setting [4]), 453.

With `CCCCN(CCCC)C(=O)CN1C[C@H](c2ccc3c(c2)OCO3)[C@@H](C(=O)O)[C@@H]1c1ccc(OC)cc1`, the “AUC of viability dose-response curve” value in experiment [1] (HPLM + 10% dialyzed FBS) turned out to be 457; in experiment [1] (RPMI 5 mM glucose + 10% FBS), 470; in experiment [1] (setting [4]) it was 464; in experiment [2] (HPLM + 10% dialyzed FBS) it was 408; in experiment [2] (RPMI 5 mM glucose + 10% FBS), 427; in experiment [2] (setting [4]), 432.

Regarding `Cc1ccc(C(=O)c2cc(O)c(O)c([N+](=O)[O-])c2)cc1`, the “AUC of viability dose-response curve” value in experiment [1] (HPLM + 10% dialyzed FBS) came to 447; in experiment [1] (RPMI 5 mM glucose + 10% FBS), 424; in experiment [1] (setting [4]), 456; in experiment [3] (HPLM + 10% dialyzed FBS), 468; in experiment [3] (RPMI 5 mM glucose + 10% FBS), 449; in experiment [3] (setting [4]), 434. The “AUC of viability dose-response curve” value in experiment [2] (HPLM + 10% dialyzed FBS) worked out at 435; in experiment [2] (RPMI 5 mM glucose + 10% FBS), 466; in experiment [2] (setting [4]), 434.

Take `CCNC(=O)[C@H]1O[C@@H](n2cnc3c(N)nc(NCCc4ccc(CCC(=O)O)cc4)nc32)[C@H](O)[C@@H]1O`: the “AUC of viability dose-response curve” value was found to be 458 in experiment [1] (HPLM + 10% dialyzed FBS); 437 in experiment [1] (RPMI 5 mM glucose + 10% FBS); 442 in experiment [1] (setting [4]); 465 in experiment [3] (HPLM + 10% dialyzed FBS); 456 in experiment [3] (RPMI 5 mM glucose + 10% FBS); 462 in experiment [3] (setting [4]). Further, the “AUC of viability dose-response curve” value is 470 in experiment [2] (HPLM + 10% dialyzed FBS), 421 in experiment [2] (RPMI 5 mM glucose + 10% FBS) and 469 in experiment [2] (setting [4]).

For the compound `O=C1CCc2ccc(OCCCCN3CCN(c4cccc(Cl)c4Cl)CC3)cc2N1`, the “AUC of viability dose-response curve” value was 449 in experiment [1] (HPLM + 10% dialyzed FBS); 433 in experiment [1] (RPMI 5 mM glucose + 10% FBS); 438 in experiment [1] (setting [4]); 473 in experiment [3] (HPLM + 10% dialyzed FBS); 471 in experiment [3] (RPMI 5 mM glucose + 10% FBS); 449 in experiment [3] (setting [4]).

Take `CC(C)[C@H](CO)Nc1nc(Nc2cccc(Cl)c2)c2ncn(C(C)C)c2n1`: the “AUC of viability dose-response curve” value came out at 304 in experiment [1] (HPLM + 10% dialyzed FBS); 342 in experiment [1] (RPMI 5 mM glucose + 10% FBS); 351 in experiment [1] (setting [4]); 385 in experiment [3] (HPLM + 10% dialyzed FBS); 404 in experiment [3] (RPMI 5 mM glucose + 10% FBS); 387 in experiment [3] (setting [4]). Besides, the “AUC of viability dose-response curve” value in experiment [2] (HPLM + 10% dialyzed FBS) is 316; in experiment [2] (RPMI 5 mM glucose + 10% FBS), 255; in experiment [2] (setting [4]) it was 284.

For `C[C@@H]1C[C@H]2[C@@H]3CC\C4=C\C(=O)\C=C/[C@]4(C)[C@@]3(Cl)[C@@H](O)C[C@]2(C)[C@@]1(OC(=O)C5=CC=CO5)C(=O)CCl`, the “AUC of viability dose-response curve” value in experiment [1] (HPLM + 10% dialyzed FBS) was 442; in experiment [1] (RPMI 5 mM glucose + 10% FBS) it was 454; in experiment [1] (setting [4]), 451; in experiment [3] (HPLM + 10% dialyzed FBS) it was 313; in experiment [3] (RPMI 5 mM glucose + 10% FBS), 265; in experiment [3] (setting [4]) it was 234. Besides, the “AUC of viability dose-response curve” value in experiment [2] (HPLM + 10% dialyzed FBS) was found to be 245; in experiment [2] (RPMI 5 mM glucose + 10% FBS), 236; in experiment [2] (setting [4]), 222.

Consider `CCN1C[C@]2(OC(=O)c3ccccc3NC(C)=O)CC[C@H](OC)[C@@]34[C@@H]2C[C@@H]([C@@H]13)[C@@]1(O)C[C@H](OC)[C@H]2C[C@@H]4[C@]1(O)[C@H]2OC`, for which the “AUC of viability dose-response curve” value in experiment [1] (HPLM + 10% dialyzed FBS) was 477; in experiment [1] (RPMI 5 mM glucose + 10% FBS), 465; in experiment [1] (setting [4]) it was 477; in experiment [3] (HPLM + 10% dialyzed FBS), 473; in experiment [3] (RPMI 5 mM glucose + 10% FBS), 475; in experiment [3] (setting [4]) it was 469. Moreover, the “AUC of viability dose-response curve” value in experiment [2] (HPLM + 10% dialyzed FBS) came to 461; in experiment [2] (RPMI 5 mM glucose + 10% FBS) it was 439; in experiment [2] (setting [4]), 430.

As to `COC[C@H]1OC(=O)C2=COC3=C2[C@@]1(C)\C4=C(\[C@@H]5CC[C@H](O)[C@@]5(C)C[C@H]4OC(C)=O)C3=O`, the “AUC of viability dose-response curve” value in experiment [1] (HPLM + 10% dialyzed FBS) came out at 440; in experiment [1] (RPMI 5 mM glucose + 10% FBS) it was 466; in experiment [1] (setting [4]), 458.

For `CNCC(O)C(O)C(O)C(O)CO.O=C(O)c1ccc(-c2cc3cccnc3c(-c3ccc4nonc4c3)n2)cc1`, the “AUC of viability dose-response curve” value in experiment [1] (HPLM + 10% dialyzed FBS) was 467; in experiment [1] (RPMI 5 mM glucose + 10% FBS), 464; in experiment [1] (setting [4]), 469; in experiment [3] (HPLM + 10% dialyzed FBS) it was 473; in experiment [3] (RPMI 5 mM glucose + 10% FBS) it was 470; in experiment [3] (setting [4]) it was 468. The “AUC of viability dose-response curve” value is 472 in experiment [2] (HPLM + 10% dialyzed FBS), 472 in experiment [2] (RPMI 5 mM glucose + 10% FBS) and 459 in experiment [2] (setting [4]).

For `OC(COC1=C2C(=O)\C=C(/OC2=CC=C1)C([O-])=O)COC3=C4C(=O)\C=C(/OC4=CC=C3)C([O-])=O`, the “AUC of viability dose-response curve” value in experiment [1] (HPLM + 10% dialyzed FBS) is 435; in experiment [1] (RPMI 5 mM glucose + 10% FBS), 368; in experiment [1] (setting [4]), 394.

With `CN(C)C[C@@H]1CC[N]2C=C(C3=C2C=CC=C3)C/4=C(/C(=O)NC4=O)C5=C[N](CCO1)C6=C5C=CC=C6`, the “AUC of viability dose-response curve” value in experiment [1] (HPLM + 10% dialyzed FBS) came to 443; in experiment [1] (RPMI 5 mM glucose + 10% FBS), 423; in experiment [1] (setting [4]), 425; in experiment [3] (HPLM + 10% dialyzed FBS), 458; in experiment [3] (RPMI 5 mM glucose + 10% FBS), 453; in experiment [3] (setting [4]) it was 459. Further, the results for the “AUC of viability dose-response curve” value in experiment [2] (HPLM + 10% dialyzed FBS), in experiment [2] (RPMI 5 mM glucose + 10% FBS) and in experiment [2] (setting [4]) were 391, 412 and 393, respectively.

Take `NC(=O)c1cccc(N)c1`: the “AUC of viability dose-response curve” value in experiment [1] (HPLM + 10% dialyzed FBS) was found to be 471; in experiment [1] (RPMI 5 mM glucose + 10% FBS), 454; in experiment [1] (setting [4]) it was 465; in experiment [3] (HPLM + 10% dialyzed FBS), 452; in experiment [3] (RPMI 5 mM glucose + 10% FBS) it was 451; in experiment [3] (setting [4]), 454. Besides, the “AUC of viability dose-response curve” value in experiment [2] (HPLM + 10% dialyzed FBS) was determined as 436; in experiment [2] (RPMI 5 mM glucose + 10% FBS), 384; in experiment [2] (setting [4]), 442.

For the compound `OC1=CC=C(C=C1)\C2=C\C(=O)C3=C(O2)C=C(O)C=C3O`, the “AUC of viability dose-response curve” value in experiment [1] (HPLM + 10% dialyzed FBS) was 451; in experiment [1] (RPMI 5 mM glucose + 10% FBS), 457; in experiment [1] (setting [4]), 448; in experiment [3] (HPLM + 10% dialyzed FBS), 467; in experiment [3] (RPMI 5 mM glucose + 10% FBS), 456; in experiment [3] (setting [4]), 453. For the same compound, the “AUC of viability dose-response curve” value is 462 in experiment [2] (HPLM + 10% dialyzed FBS), 430 in experiment [2] (RPMI 5 mM glucose + 10% FBS) and 443 in experiment [2] (setting [4]).
